Holding throughout (format): cell-based
One test relates to LNCaP FGC cells. Kind of test: Inhibition of proliferation of LNCaP cells (WST-8). Conditions: Homo sapiens, LNCaP, 96 h. On the procedure:
The cells were cultured in a cell culture incubator with 5% CO2 at 37° C. overnight. […] On the sixth day, 96 well plates were taken out, and 20 μL of WST-8 (Beytime, C0040) reagent was added to each well.

In a further test the test system is VCaP cells. Kind of test: Inhibition of proliferation of VCaP cells (WST-8). Conditions: Homo sapiens, read-out: IC50 for inhibiting the proliferation of VCaP cells. The method, boiled down:
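VCaP FGC cells, 15000 per well in DMEM with 10% FBS, were cultured at 37° C, 5% CO2. On day nine, WST-8 reagent was added to read proliferation.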
On the technique in general: Tetrazolium dyes change colour on reduction, which living cells bring about.

The target of test [1] is T1, AR protein (Homo sapiens, UniProt P10275).
T1 construct: degradation activity of the compounds disclosed in the present disclosure on AR protein in VCaP cells; host or cells: VCaP
T1 sequence (P10275 1-920): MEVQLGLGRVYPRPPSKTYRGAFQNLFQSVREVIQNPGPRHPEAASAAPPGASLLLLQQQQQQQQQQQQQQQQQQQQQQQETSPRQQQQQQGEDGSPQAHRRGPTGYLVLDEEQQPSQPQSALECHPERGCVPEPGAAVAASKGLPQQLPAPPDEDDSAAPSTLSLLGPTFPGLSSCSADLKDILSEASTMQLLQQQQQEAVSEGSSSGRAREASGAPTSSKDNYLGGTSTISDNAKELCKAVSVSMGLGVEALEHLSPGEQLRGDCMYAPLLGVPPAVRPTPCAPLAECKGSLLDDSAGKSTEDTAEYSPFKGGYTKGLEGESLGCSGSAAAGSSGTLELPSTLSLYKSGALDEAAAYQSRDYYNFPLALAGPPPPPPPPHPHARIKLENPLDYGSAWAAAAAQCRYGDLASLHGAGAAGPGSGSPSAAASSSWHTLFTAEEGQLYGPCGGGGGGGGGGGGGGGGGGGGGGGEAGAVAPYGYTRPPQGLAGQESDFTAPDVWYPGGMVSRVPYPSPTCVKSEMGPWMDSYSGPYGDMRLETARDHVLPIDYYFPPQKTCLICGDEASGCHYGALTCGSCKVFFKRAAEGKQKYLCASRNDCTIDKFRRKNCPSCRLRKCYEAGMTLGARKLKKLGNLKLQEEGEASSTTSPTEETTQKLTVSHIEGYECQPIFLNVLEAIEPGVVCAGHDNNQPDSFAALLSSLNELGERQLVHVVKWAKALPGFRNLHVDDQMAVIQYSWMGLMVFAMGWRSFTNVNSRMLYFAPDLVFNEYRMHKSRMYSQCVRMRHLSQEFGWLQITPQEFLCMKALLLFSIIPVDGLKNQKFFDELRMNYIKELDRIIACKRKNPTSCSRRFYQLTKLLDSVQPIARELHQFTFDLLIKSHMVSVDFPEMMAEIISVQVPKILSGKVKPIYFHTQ
Kind of test: Degradation of AR protein in VCaP cells (Western blot). Conditions: 8 hours; for inhibition at 0.01 µM: compound at 10 nM, read-out: Degradation rate of the AR protein in VCaP cells, 10 nM (%); for inhibition at 0.1 µM: compound at 100 nM, read-out: Degradation rate of the AR protein in VCaP cells, 100 nM (%). The method, boiled down: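 VCaP cells treated with compound alongside solvent controls for 8 h, then lysed in RIPA and protein quantified by BCA. AR detected by SDS-PAGE/Western blot with infrared imaging. Degradation rate calculated from band grayscale, with GAPDH as internal reference.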

Test [2] concerns the target T2, AR protein (Homo sapiens, UniProt P10275, T878A).
T2 construct: degradation activity of the compounds disclosed in the present disclosure on AR protein in LNCaP cells; host or cells: LNCaP FGC
T2 sequence (P10275 1-920 T878A): T1 sequence (P10275 1-920) with T878A
The experiment in a line: Degradation of AR protein in LNCaP cells (Western blot). Conditions: for inhibition at 0.01 µM: read-out: Degradation rates of the AR protein in LNCaP cells, 10 nM (%); for inhibition at 0.1 µM: read-out: Degradation rates of the AR protein in LNCaP cells, 100 nM (%). The procedure, abridged:
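AR assessed by SDS-PAGE/Western blot with infrared imaging; band greyscale normalised to GAPDH gave percent degradation.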

Where [3] appears, read: LNCaP FGC cells, 96 hours, WST-8 absorbance at 450 nm, read-out: IC50 for inhibiting the proliferation of LNCaP cells.
The mark [4] stands for this setting: VCaP cells, 168 hours, WST-8 absorbance at 450 nm.
The mark [5] stands for this setting: LNCaP cells, compound 10 nM, 8 hours, Western blot grayscale, GAPDH internal reference.
Where [6] appears, read: LNCaP cells, compound 100 nM, 8 hours, Western blot grayscale, GAPDH internal reference.
Setting [7] is: read-out: IC50 for inhibiting the proliferation of LNCaP cells, LNCaP FGC cells, 96 hours, WST-8 absorbance at 450 nm.

Changes are numbered by the printed parent chain. Like-named read-outs stand apart in the source and are kept apart here.

In the case of `N#Cc1ccc(O[C@H]2CC[C@H](NC(=O)c3ccc(N4CC(CN5CCC6(CC5)COc5cc7c(cc5C6)C(=O)N(C5CCC(=O)NC5=O)C7=O)C4)nn3)CC2)cc1Cl` (stereo partly drawn) [Compound 59], the IC50 in the test on LNCaP FGC cells (setting [3]) was determined as 400 nM; in the test with VCaP cells (setting [4]), 110 nM. In addition, the inhibition at 0.01 µM on AR protein [1] is 86%; at AR protein [2] (setting [5]), 43%. The inhibition at 0.1 µM on AR protein [1] is 87%; at AR protein [2] (setting [6]), 66%.

On to `N#Cc1ccc(O[C@H]2CC[C@H](NC(=O)c3ccc(N4CCC(N5CCC6(CCc7ccc8c(c7O6)CN(C6CCC(=O)NC6=O)C8=O)CC5)CC4)nn3)CC2)cc1Cl` (stereo partly drawn) [Compound 171], for which the IC50 with LNCaP FGC cells (setting [7]) worked out at 13500 nM; in the test on VCaP cells (VCaP, 168 h) it was 1 nM. Besides, the inhibition at 0.01 µM at AR protein [1] was 46%; on AR protein [2] (LNCaP, 8 h), 22%. In addition, the inhibition at 0.1 µM at AR protein [1] stood at 62%; on AR protein [2] (LNCaP, 8 h), 44%.

Take `N#Cc1ccc(O[C@H]2CC[C@H](NC(=O)c3ccc(N4CC5(CC(N6CCC7(CC6)COc6cc8c(cc67)C(=O)N(C6CCC(=O)NC6=O)C8=O)C5)C4)nn3)CC2)cc1Cl` (stereo partly drawn) [Compound 50]: the IC50 in the test with LNCaP FGC cells (setting [3]) worked out at 1200 nM; in the test with VCaP cells (setting [4]), 28 nM. The inhibition at 0.01 µM stood at 77% on AR protein [1] and 66% at AR protein [2] (setting [5]). Also, the inhibition at 0.1 µM at AR protein [1] worked out at 88%; at AR protein [2] (setting [6]), 86%.

`N#Cc1ccc(O[C@H]2CC[C@H](NC(=O)c3ccc(N4CCC(N5CCC(N6CCC7(CC6)COc6c7ccc7c6CN(C6CCC(=O)NC6=O)C7=O)CC5)CC4)nn3)CC2)cc1Cl` (stereo partly drawn) [Compound 173]: the IC50 with LNCaP FGC cells (setting [7]) was found to be 12300 nM; with VCaP cells (VCaP, 168 h) it was 1 nM. For the same compound, the inhibition at 0.01 µM was found to be 75% at AR protein [1] and 75% on AR protein [2] (LNCaP, 8 h). For the same compound, the inhibition at 0.1 µM at AR protein [1] worked out at 86%; at AR protein [2] (LNCaP, 8 h), 72%.

In the case of `N#Cc1ccc(O[C@H]2CC[C@H](NC(=O)c3ccc(N4CC5(CCC(N6CCC7(CC6)COc6cc8c(cc6C7)C(=O)N(C6CCC(=O)NC6=O)C8=O)CC5)C4)nn3)CC2)cc1Cl` (stereo partly drawn) [Compound 65], the IC50 in the test on LNCaP FGC cells (setting [3]) is 500 nM; in the test with VCaP cells (setting [4]) it was 100 nM. The inhibition at 0.01 µM is 50% on AR protein [1] and 36% on AR protein [2] (setting [5]). Besides, the inhibition at 0.1 µM came out at 71% on AR protein [1] and 75% on AR protein [2] (setting [6]).

Take `N#Cc1ccc(O[C@H]2CC[C@H](NC(=O)c3ccc(N4CCC5(CCC(N6CCC7(CC6)COc6cc8c(cc67)C(=O)N(C6CCC(=O)NC6=O)C8=O)CC5)CC4)nn3)CC2)cc1Cl` (stereo partly drawn) [Compound 51]: the values for the IC50 with LNCaP FGC cells (setting [3]) and with VCaP cells (setting [4]) were 400 nM and 18 nM, respectively. Moreover, the inhibition at 0.01 µM on AR protein [1] turned out to be 83%; on AR protein [2] (setting [5]) it was 13%. Further, the inhibition at 0.1 µM came to 90% at AR protein [1] and 49% on AR protein [2] (setting [6]).

On to `COc1cc(OC2CCC(NC(=O)c3cnc(N4CCC(C)(CN5CCC6(CC5)COc5c6ccc6c5C(=O)N(C5CCC(=O)NC5=O)C6=O)CC4)nc3)CC2)ccc1C#N` (stereo not drawn) [Compound 246], for which the IC50 in the test on LNCaP FGC cells (setting [3]) was found to be 870 nM; in the test on VCaP cells (setting [4]), 120 nM. In addition, the inhibition at 0.01 µM on AR protein [1] was -19%; on AR protein [2] (setting [5]), 17%. For the same compound, the inhibition at 0.1 µM at AR protein [1] came to 61%; on AR protein [2] (setting [6]) it was 43%.

`N#Cc1ccc(O[C@H]2CC[C@H](NC(=O)c3ccc(N4CCC(CO)(CN5CCC6(CC5)COc5c6ccc6c5CN(C5CCC(=O)NC5=O)C6=O)CC4)nn3)CC2)cc1Cl` (stereo partly drawn) [Compound 257]: the IC50 with LNCaP FGC cells (setting [3]) was determined as 14 nM; with VCaP cells (setting [4]), 1.5 nM. In addition, the inhibition at 0.01 µM at AR protein [1] is 67%; at AR protein [2] (setting [5]), 36%. Moreover, the inhibition at 0.1 µM at AR protein [1] is 75%; on AR protein [2] (setting [6]), -41%.

Regarding `COc1cc(O[C@H]2C(C)(C)[C@H](NC(=O)c3ccc(N4CCC(C)(CN5CCC6(CCc7ccc8c(c7O6)CN(C6CCC(=O)NC6=O)C8=O)CC5)CC4)cc3)C2(C)C)ccc1C#N` (stereo partly drawn) [Compound 283], the IC50 in the test on LNCaP FGC cells (setting [3]) was 97600 nM; in the test with VCaP cells (setting [4]) it was 13 nM. Also, the inhibition at 0.01 µM on AR protein [1] was determined as 2%; on AR protein [2] (setting [5]) it was 53%. For the same compound, the figures for the inhibition at 0.1 µM at AR protein [1] and on AR protein [2] (setting [6]) were 45% and 66%, respectively.

For the compound `COc1cc(O[C@H]2CC[C@H](NC(=O)c3cnc(N4CCC(CN5CCC6(CC5)COc5c6ccc6c5C(=O)N(C5CCC(=O)NC5=O)C6=O)(OC)CC4)nc3)CC2)ccc1C#N` (stereo partly drawn) [Compound 220], the IC50 stood at 64 nM in the test with LNCaP FGC cells (setting [3]) and 51 nM in the test on VCaP cells (setting [4]). In addition, the values for the inhibition at 0.01 µM at AR protein [1] and on AR protein [2] (setting [5]) were 22% and 32%, respectively. Besides, the inhibition at 0.1 µM worked out at 78% at AR protein [1] and 63% at AR protein [2] (setting [6]).

With `COc1cc(O[C@H]2C(C)(C)[C@H](NC(=O)c3ccc(N4CCC(F)(CN5CCC6(CC5)COc5cc7c(cc5O6)CN(C5CCC(=O)NC5=O)C7=O)CC4)cc3)C2(C)C)ccc1C#N` (stereo partly drawn) [Compound 284], the figures for the IC50 with LNCaP FGC cells (setting [3]) and in the test on VCaP cells (setting [4]) were 5840 nM and 19 nM, respectively. The inhibition at 0.01 µM on AR protein [1] was 9%; on AR protein [2] (setting [5]), 18%. Also, the inhibition at 0.1 µM was found to be 73% on AR protein [1] and 51% on AR protein [2] (setting [6]).

For the compound `N#Cc1ccc(O[C@H]2CC[C@H](NC(=O)c3ccc(N4CCC(CC(=O)N5CCC6(CC5)COc5c6ccc6c5CN(C5CCC(=O)NC5=O)C6=O)CC4)nn3)CC2)cc1Cl` (stereo partly drawn) [Compound 192], the figures for the IC50 in the test with LNCaP FGC cells (setting [3]) and in the test with VCaP cells (setting [4]) were 2590 nM and 3 nM, respectively. In addition, the inhibition at 0.01 µM on AR protein [1] turned out to be 66%; at AR protein [2] (setting [5]) it was 37%. The inhibition at 0.1 µM is 86% at AR protein [1] and 35% at AR protein [2] (setting [6]).

Source of the values: US20260234157A1, “COMPOUND AND METHOD FOR TARGETED DEGRADATION OF ANDROGEN RECEPTOR” (Gan & Lee Pharmaceuticals Co., Ltd., priority 2023, published 2026).
